From PubChem BioAssay AID248 (DTP/NCI, 2004)
Where “and” joins values, the source holds several entries; their conditions need not be identical. Identical values can stand only once. Inconclusive results and toxic doses are left out. Rule as the data show it: active = T/C of 150% or more; inactive = T/C below 125%.

Tested on: L1210 leukemia ip in BDF1 mice, survival T/C
Assay: NCI In Vivo Anticancer Drug Screen. Data for tumor model L1210 Leukemia (intraperitoneal) in B6D2F1 (BDF1) mice
Details: endpoint: mean survival time, higher = longer survival
Method in brief: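 Antitumor effect is assessed in tumor-bearing animals. Survival in the compound arm is compared with a vehicle-dosed control arm and expressed as their quotient.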

[1] = dose: 50.0 mg/kg/injection, schedule: Q01DX009 (ip), vehicle: saline
[2] = dose: 100.0 mg/kg/injection, schedule: Q01DX009 (ip), vehicle: saline
[3] = dose: 100.0 mg/kg/injection, schedule: Q04DX003 (ip), vehicle: saline
[4] = dose: 200.0 mg/kg/injection, schedule: Q01DX009 (ip), vehicle: saline
[5] = dose: 200.0 mg/kg/injection, schedule: Q04DX003 (ip), vehicle: saline
[6] = dose: 100.0 mg/kg/injection, schedule: Q01DX009 (ip), vehicle: Klucel (hydroxypropylcellulose) (HPC)
[7] = dose: 200.0 mg/kg/injection, schedule: Q04DX003 (ip), vehicle: Klucel (hydroxypropylcellulose) (HPC)
[8] = dose: 100.0 mg/kg/injection, schedule: Q01DX009 (ip), vehicle: saline with Tween-80
[9] = dose: 200.0 mg/kg/injection, schedule: Q01DX009 (ip), vehicle: saline with Tween-80
[10] = dose: 200.0 mg/kg/injection, schedule: Q01DX009 (ip), vehicle: Klucel (hydroxypropylcellulose) (HPC)
[11] = dose: 400.0 mg/kg/injection, schedule: Q01DX009 (ip), vehicle: Klucel (hydroxypropylcellulose) (HPC)
[12] = dose: 100.0 mg/kg/injection, schedule: Q01DX001 (ip), vehicle: saline
[13] = dose: 200.0 mg/kg/injection, schedule: Q01DX001 (ip), vehicle: saline
[14] = dose: 400.0 mg/kg/injection, schedule: Q01DX001 (ip), vehicle: saline
[15] = dose: 50.0 mg/kg/injection, schedule: Q01DX001 (ip), vehicle: saline
[16] = dose: 100.0 mg/kg/injection, schedule: Q01DX001 (ip), vehicle: carboxymethylcellulose (CMC)
[17] = dose: 100.0 mg/kg/injection, schedule: Q01DX009 (ip), vehicle: carboxymethylcellulose (CMC)
[18] = dose: 100.0 mg/kg/injection, schedule: Q04DX003 (ip), vehicle: carboxymethylcellulose (CMC)
[19] = dose: 200.0 mg/kg/injection, schedule: Q01DX001 (ip), vehicle: carboxymethylcellulose (CMC)
[20] = dose: 200.0 mg/kg/injection, schedule: Q01DX009 (ip), vehicle: carboxymethylcellulose (CMC)
[21] = dose: 200.0 mg/kg/injection, schedule: Q04DX003 (ip), vehicle: carboxymethylcellulose (CMC)
[22] = dose: 400.0 mg/kg/injection, schedule: Q01DX001 (ip), vehicle: carboxymethylcellulose (CMC)
[23] = dose: 400.0 mg/kg/injection, schedule: Q04DX003 (ip), vehicle: carboxymethylcellulose (CMC)
[24] = dose: 50.0 mg/kg/injection, schedule: Q04DX003 (ip), vehicle: Klucel (hydroxypropylcellulose) (HPC)

Measured: T/C

C[n+]1ccc2ccccc2c1
inactive: [1] 105 % of control | dose: 50.0 mg/kg/injection, schedule: Q04DX003 (ip), vehicle: saline 105 % of control | [2] 100 % of control | [3] 101 % of control | [4] 107 % of control | [5] 106 % of control

CCn1nnc2c(N(C)C)nc(N)nc21
inactive: dose: 50.0 mg/kg/injection, schedule: Q01DX009 (ip), vehicle: Klucel (hydroxypropylcellulose) (HPC) 93 % of control | [6] 95 % of control | dose: 100.0 mg/kg/injection, schedule: Q04DX003 (ip), vehicle: Klucel (hydroxypropylcellulose) (HPC) 93 % of control | [7] 92 % of control

O=C(CF)CCl
inactive: dose: 0.87 mg/kg/injection, schedule: Q01DX009 (ip), vehicle: Klucel (hydroxypropylcellulose) (HPC) 102 % of control | dose: 1.75 mg/kg/injection, schedule: Q01DX009 (ip), vehicle: Klucel (hydroxypropylcellulose) (HPC) 105 % of control | dose: 3.5 mg/kg/injection, schedule: Q01DX009 (ip), vehicle: Klucel (hydroxypropylcellulose) (HPC) 110 % of control | dose: 14.0 mg/kg/injection, schedule: Q04DX003 (ip), vehicle: saline 96 % of control | dose: 28.0 mg/kg/injection, schedule: Q04DX003 (ip), vehicle: saline 112 % of control

CCOC(=O)c1cc2ccccc2n1-c1ccccc1
inactive: [8] 111 % of control | [9] 104 % of control | dose: 400.0 mg/kg/injection, schedule: Q01DX009 (ip), vehicle: saline with Tween-80 104 % of control

CCOC(=O)/C=C(\C)OCC
inactive: dose: 25.0 mg/kg/injection, schedule: Q01DX009 (ip), vehicle: saline 106 % of control | [1] 109 % of control | [2] 109 % of control | [4] 111 % of control | dose: 400.0 mg/kg/injection, schedule: Q01DX009 (ip), vehicle: saline 104 % of control

N#CCCC(=O)c1ccccn1
inactive: [10] 100 % of control | [11] 93 % of control

O=C1C(O)=C(Cl)C(=O)C(O)=C1Cl
inactive: [8] 106 % of control | [3] 114 % of control | [9] 95 % of control | [5] 120 % of control | dose: 400.0 mg/kg/injection, schedule: Q04DX003 (ip), vehicle: saline 116 % of control

COC(=O)c1cc(C)ccc1C
inactive: [12] 101 % of control | [13] 98 % of control | [14] 101 % of control

CCCCCCCCCCNC(=S)NNC(=O)CCCC(=O)NNC(=S)NCCCCCCCCCC
inactive: [15] 96 % of control | [12] 96 % of control | [13] 90 % of control | [14] 96 % of control

O=[N+]([O-])c1ccc(OCCOCCBr)c(Cl)c1
inactive: [16] 98 % of control and 101 % of control | [17] 101 % of control and 110 % of control | [18] 100 % of control and 103 % of control | [19] 98 % of control and 90 % of control | [20] 95 % of control and 97 % of control | [21] 100 % of control and 106 % of control | [22] 97 % of control and 101 % of control | dose: 400.0 mg/kg/injection, schedule: Q01DX009 (ip), vehicle: carboxymethylcellulose (CMC) 95 % of control and 101 % of control | [23] 94 % of control

Nc1nc(N)c(C=O)c(Nc2ccc(Br)cc2)n1
inactive: dose: 50.0 mg/kg/injection, schedule: Q01DX001 (ip), vehicle: alcohol 110 % of control | dose: 100.0 mg/kg/injection, schedule: Q01DX001 (ip), vehicle: alcohol 96 % of control | dose: 200.0 mg/kg/injection, schedule: Q01DX001 (ip), vehicle: alcohol 94 % of control | dose: 400.0 mg/kg/injection, schedule: Q01DX001 (ip), vehicle: alcohol 90 % of control

CCOC(=O)C(=O)Nc1ncn[nH]1
inactive: dose: 100.0 mg/kg/injection, schedule: Q01DX005 (ip), vehicle: Klucel (hydroxypropylcellulose) (HPC) 95 % of control | [6] 96 % of control | dose: 100.0 mg/kg/injection, schedule: Q04DX002 (ip), vehicle: Klucel (hydroxypropylcellulose) (HPC) 96 % of control | dose: 200.0 mg/kg/injection, schedule: Q01DX005 (ip), vehicle: Klucel (hydroxypropylcellulose) (HPC) 98 % of control | [10] 104 % of control | dose: 200.0 mg/kg/injection, schedule: Q04DX002 (ip), vehicle: Klucel (hydroxypropylcellulose) (HPC) 90 % of control | dose: 400.0 mg/kg/injection, schedule: Q01DX005 (ip), vehicle: Klucel (hydroxypropylcellulose) (HPC) 103 % of control | [11] 93 % of control | dose: 400.0 mg/kg/injection, schedule: Q04DX002 (ip), vehicle: Klucel (hydroxypropylcellulose) (HPC) 101 % of control

CCCCCCCCCCCCCCCCCc1cc(=O)n(-c2ccc(NC(=O)CCC(=O)OC)cc2)n1C
inactive: dose: 12.5 mg/kg/injection, schedule: Q04DX003 (ip), vehicle: Klucel (hydroxypropylcellulose) (HPC) 93 % of control | [24] 86 % of control

CCCCCCCCCCCCCC(=O)N(CCC)CCC
inactive: [16] 96 % of control | [17] 94 % of control and 110 % of control | [18] 95 % of control | [19] 93 % of control | [20] 98 % of control and 103 % of control | [21] 95 % of control | [22] 91 % of control | [23] 93 % of control

Cc1ccc(NC(=O)OCCSCCOC(=O)Nc2ccc(C)cc2)cc1
inactive: dose: 100.0 mg/kg/injection, schedule: Q01DX009 (ip), vehicle: other 89 % of control | dose: 200.0 mg/kg/injection, schedule: Q01DX009 (ip), vehicle: other 89 % of control | dose: 400.0 mg/kg/injection, schedule: Q01DX009 (ip), vehicle: other 97 % of control

Nc1nc(N)c(C=O)c(Nc2ccc(I)cc2)n1
inactive: [15] 100 % of control | [12] 100 % of control | [13] 123 % of control | [14] 117 % of control

CC(=O)OCCOc1ccccc1Cl
inactive: dose: 100.0 mg/kg/injection, schedule: Q04DX002 (ip), vehicle: saline with Tween-80 118 % of control | dose: 200.0 mg/kg/injection, schedule: Q04DX002 (ip), vehicle: saline with Tween-80 108 % of control | dose: 400.0 mg/kg/injection, schedule: Q04DX002 (ip), vehicle: saline with Tween-80 114 % of control

CN1CN(c2ccccc2)C2(CCN(CCCCCCC#N)CC2)C1=O
inactive: dose: 25.0 mg/kg/injection, schedule: Q04DX003 (ip), vehicle: Klucel (hydroxypropylcellulose) (HPC) 102 % of control | [24] 94 % of control | [7] 90 % of control | dose: 400.0 mg/kg/injection, schedule: Q04DX003 (ip), vehicle: Klucel (hydroxypropylcellulose) (HPC) 97 % of control
